Experimental data: PubChem BioAssay AID2060887 (Molecular Pharmacology Branch, DTP, NCI, 2025)

Tested on: 782815-120-R-J1-PDC complex spheroid viability
Assay: Anticancer human tumor 782815-120-R-J1-PDC patient-derived colon adenocarcinoma cell line growth inhibition [RAS]
Conditions: for IC50: curve of first compound; for viability, T/C: stronger effect = lower value
Procedure, shortened: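 Multi-cell-type spheroids: tumor cells plus HUVEC endothelial cells and mesenchymal stem cells. RAS-pathway inhibitors were combined with targeted agents, each dosed in half-log steps down from clinical Cmax, or from 10 microM when Cmax was unknown.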

[1] = second compound 0.000949 µM, first compound 0.0316 µM
[2] = second compound 0.000949 µM, first compound 0.1 µM
[3] = second compound 0.000949 µM, first compound 0.316 µM
[4] = second compound 0.000949 µM, first compound 1 µM
[5] = second compound 0.000949 µM, first compound 3.16 µM
[6] = second compound 0.000949 µM, first compound 10 µM
[7] = second compound 0.003 µM, first compound 0.0316 µM
[8] = second compound 0.003 µM, first compound 0.1 µM
[9] = second compound 0.003 µM, first compound 0.316 µM
[10] = second compound 0.003 µM, first compound 1 µM
[11] = second compound 0.003 µM, first compound 3.16 µM
[12] = second compound 0.003 µM, first compound 10 µM
[13] = second compound 0.00949 µM, first compound 0.0316 µM
[14] = second compound 0.00949 µM, first compound 0.1 µM
[15] = second compound 0.00949 µM, first compound 0.316 µM
[16] = second compound 0.00949 µM, first compound 1 µM
[17] = second compound 0.00949 µM, first compound 3.16 µM
[18] = second compound 0.00949 µM, first compound 10 µM
[19] = second compound 0.03 µM, first compound 0.0316 µM
[20] = second compound 0.03 µM, first compound 0.1 µM
[21] = second compound 0.03 µM, first compound 0.316 µM
[22] = second compound 0.03 µM, first compound 1 µM
[23] = second compound 0.03 µM, first compound 3.16 µM
[24] = second compound 0.03 µM, first compound 10 µM
[25] = second compound 0.0949 µM, first compound 0.0316 µM
[26] = second compound 0.0949 µM, first compound 0.1 µM
[27] = second compound 0.0949 µM, first compound 0.316 µM
[28] = second compound 0.0949 µM, first compound 1 µM
[29] = second compound 0.0949 µM, first compound 3.16 µM
[30] = second compound 0.0949 µM, first compound 10 µM
[31] = second compound 0.3 µM, first compound 0.0316 µM
[32] = second compound 0.3 µM, first compound 0.1 µM
[33] = second compound 0.3 µM, first compound 0.316 µM
[34] = second compound 0.3 µM, first compound 1 µM
[35] = second compound 0.3 µM, first compound 3.16 µM
[36] = second compound 0.3 µM, first compound 10 µM
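Further: spheroids exposed to compounds for 7 days before reading.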
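Wherever viability, T/C is given: 100% = DMSO vehicle control viability.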

## CC(C)NCC(C(=O)N1CCN(c2ncnc3c2C(C)CC3O)CC1)c1ccc(Cl)cc1 (stereo unspecified) + CCn1c(-c2cccnc2C(C)OC)c2c3cc(ccc31)N1CCOC(CC(NC(=O)C(C(C)C)N(C)C(=O)C3(F)CCN(C(=O)C#CC(C)(C)N(C)C)CC3)C(=O)N3CCCC(N3)C(=O)OCC(C)(C)C2)C1
Second compound 0.000949 µM
  IC50: > 10 µM
Second compound 0.003 µM
  IC50: > 10 µM
Second compound 0.00949 µM
  IC50: > 10 µM
Second compound 0.03 µM
  IC50: > 10 µM
Second compound 0.0949 µM
  IC50: > 10 µM
Second compound 0.3 µM
  IC50: > 10 µM
[1]
  viability, T/C: 90.6%
[2]
  viability, T/C: 90.6%
[3]
  viability, T/C: 104%
[4]
  viability, T/C: 88.8%
[5]
  viability, T/C: 97.8%
[6]
  viability, T/C: 104%
[7]
  viability, T/C: 86.3%
[8]
  viability, T/C: 98.3%
[9]
  viability, T/C: 97%
[10]
  viability, T/C: 91.5%
[11]
  viability, T/C: 98.2%
[12]
  viability, T/C: 97.5%
[13]
  viability, T/C: 95.4%
[14]
  viability, T/C: 95.9%
[15]
  viability, T/C: 99.7%
[16]
  viability, T/C: 93.3%
[17]
  viability, T/C: 104%
[18]
  viability, T/C: 104%
[19]
  viability, T/C: 105%
[20]
  viability, T/C: 90.6%
[21]
  viability, T/C: 91.9%
[22]
  viability, T/C: 94.9%
[23]
  viability, T/C: 97.2%
[24]
  viability, T/C: 96.7%
[25]
  viability, T/C: 97.1%
[26]
  viability, T/C: 97.2%
[27]
  viability, T/C: 91.9%
[28]
  viability, T/C: 95.1%
[29]
  viability, T/C: 107%
[30]
  viability, T/C: 101%
[31]
  viability, T/C: 93.4%
[32]
  viability, T/C: 93.8%
[33]
  viability, T/C: 90.4%
[34]
  viability, T/C: 93.2%
[35]
  viability, T/C: 97.2%
[36]
  viability, T/C: 92.4%

## CC(C)n1nc(-c2ccc3oc(N)nc3c2)c2c(N)ncnc21 + CCn1c(-c2cccnc2C(C)OC)c2c3cc(ccc31)N1CCOC(CC(NC(=O)C(C(C)C)N(C)C(=O)C3(F)CCN(C(=O)C#CC(C)(C)N(C)C)CC3)C(=O)N3CCCC(N3)C(=O)OCC(C)(C)C2)C1
Second compound 0.000949 µM
  IC50: > 0.1 µM
Second compound 0.003 µM
  IC50: > 0.1 µM
Second compound 0.00949 µM
  IC50: > 0.1 µM
Second compound 0.03 µM
  IC50: > 0.1 µM
Second compound 0.0949 µM
  IC50: > 0.1 µM
Second compound 0.3 µM
  IC50: > 0.1 µM
Second compound 0.000949 µM, first compound 0.000316 µM
  viability, T/C: 88.2%
Second compound 0.000949 µM, first compound 0.001 µM
  viability, T/C: 90.7%
Second compound 0.000949 µM, first compound 0.00316 µM
  viability, T/C: 93%
Second compound 0.000949 µM, first compound 0.01 µM
  viability, T/C: 88.2%
[1]
  viability, T/C: 88.1%
[2]
  viability, T/C: 76.3%
Second compound 0.003 µM, first compound 0.000316 µM
  viability, T/C: 91.5%
Second compound 0.003 µM, first compound 0.001 µM
  viability, T/C: 107%
Second compound 0.003 µM, first compound 0.00316 µM
  viability, T/C: 91.7%
Second compound 0.003 µM, first compound 0.01 µM
  viability, T/C: 86.4%
[7]
  viability, T/C: 84.8%
[8]
  viability, T/C: 78.2%
Second compound 0.00949 µM, first compound 0.000316 µM
  viability, T/C: 94.8%
Second compound 0.00949 µM, first compound 0.001 µM
  viability, T/C: 102%
Second compound 0.00949 µM, first compound 0.00316 µM
  viability, T/C: 87.3%
Second compound 0.00949 µM, first compound 0.01 µM
  viability, T/C: 94.3%
[13]
  viability, T/C: 87.3%
[14]
  viability, T/C: 70.7%
Second compound 0.03 µM, first compound 0.000316 µM
  viability, T/C: 87%
Second compound 0.03 µM, first compound 0.001 µM
  viability, T/C: 99.9%
Second compound 0.03 µM, first compound 0.00316 µM
  viability, T/C: 94.1%
Second compound 0.03 µM, first compound 0.01 µM
  viability, T/C: 93.6%
[19]
  viability, T/C: 106%
[20]
  viability, T/C: 70.5%
Second compound 0.0949 µM, first compound 0.000316 µM
  viability, T/C: 87.7%
Second compound 0.0949 µM, first compound 0.001 µM
  viability, T/C: 95.2%
Second compound 0.0949 µM, first compound 0.00316 µM
  viability, T/C: 99.6%
Second compound 0.0949 µM, first compound 0.01 µM
  viability, T/C: 83.7%
[25]
  viability, T/C: 87.8%
[26]
  viability, T/C: 78.8%
Second compound 0.3 µM, first compound 0.000316 µM
  viability, T/C: 90.9%
Second compound 0.3 µM, first compound 0.001 µM
  viability, T/C: 92.1%
Second compound 0.3 µM, first compound 0.00316 µM
  viability, T/C: 86.1%
Second compound 0.3 µM, first compound 0.01 µM
  viability, T/C: 90.2%
[31]
  viability, T/C: 90.6%
[32]
  viability, T/C: 69.2%

## C[C@@H](NC(=O)c1ncnc(N)c1Cl)c1ncc(C(=O)Nc2cc(C(F)(F)F)c(Cl)cn2)s1 + CCn1c(-c2cccnc2C(C)OC)c2c3cc(ccc31)N1CCOC(CC(NC(=O)C(C(C)C)N(C)C(=O)C3(F)CCN(C(=O)C#CC(C)(C)N(C)C)CC3)C(=O)N3CCCC(N3)C(=O)OCC(C)(C)C2)C1
Second compound 0.000949 µM
  IC50: > 10 µM
Second compound 0.003 µM
  IC50: > 10 µM
Second compound 0.00949 µM
  IC50: > 10 µM
Second compound 0.03 µM
  IC50: > 10 µM
Second compound 0.0949 µM
  IC50: 9.85 µM
Second compound 0.3 µM
  IC50: > 10 µM
[1]
  viability, T/C: 106%
[2]
  viability, T/C: 103%
[3]
  viability, T/C: 105%
[4]
  viability, T/C: 79.2%
[5]
  viability, T/C: 56.9%
[6]
  viability, T/C: 56.3%
[7]
  viability, T/C: 107%
[8]
  viability, T/C: 100%
[9]
  viability, T/C: 103%
[10]
  viability, T/C: 65.6%
[11]
  viability, T/C: 59.6%
[12]
  viability, T/C: 51.9%
[13]
  viability, T/C: 104%
[14]
  viability, T/C: 108%
[15]
  viability, T/C: 91.2%
[16]
  viability, T/C: 83.1%
[17]
  viability, T/C: 61.2%
[18]
  viability, T/C: 55%
[19]
  viability, T/C: 103%
[20]
  viability, T/C: 110%
[21]
  viability, T/C: 93.7%
[22]
  viability, T/C: 79.2%
[23]
  viability, T/C: 72.4%
[24]
  viability, T/C: 53.3%
[25]
  viability, T/C: 96.6%
[26]
  viability, T/C: 101%
[27]
  viability, T/C: 93.4%
[28]
  viability, T/C: 78.4%
[29]
  viability, T/C: 61.1%
[30]
  viability, T/C: 49.4%
[31]
  viability, T/C: 89.3%
[32]
  viability, T/C: 95%
[33]
  viability, T/C: 96.4%
[34]
  viability, T/C: 84%
[35]
  viability, T/C: 69.8%
[36]
  viability, T/C: 52.5%
